For orientation: GI50 means the concentration that inhibits growth by half. A high value points to less potent growth inhibition. What is called IC50 is the concentration that inhibits the measured activity by half. A lower IC50 goes with inhibition by little substance.

The source of these data is ChEMBL document CHEMBL4000186, “Design and synthesis of novel 2-substituted 11-keto-boswellic acid heterocyclic derivatives as anti-prostate cancer agents with Pin1 inhibition ability” (Eur J Med Chem, 2017).

In one assay the test system is LNCaP. Nature of the assay: Anti-proliferative activity against human LNCAP cells measured after 96 hrs by MTT assay. It counts as functional.
The next assay deals with PC-3. Kind of assay: Anti-proliferative activity against human PC3 cells measured after 96 hrs by MTT assay. It is filed as functional. Particulars: PC-3, 96 h.
Assay [1] addresses Peptidyl-prolyl cis-trans isomerase NIMA-interacting 1 (Homo sapiens, UniProt Q13526). Nature of the assay: Inhibition of Pin1 (unknown origin) using Suc-Ala-Glu-cis-Pro-Phe-4-nitroanilide as substrate preincubated for 30 mins followed by substrate addition measured for 90 secs by protease-enzyme coupled assay.

Sequence of Peptidyl-prolyl cis-trans isomerase NIMA-interacting 1 (Q13526 whole entry): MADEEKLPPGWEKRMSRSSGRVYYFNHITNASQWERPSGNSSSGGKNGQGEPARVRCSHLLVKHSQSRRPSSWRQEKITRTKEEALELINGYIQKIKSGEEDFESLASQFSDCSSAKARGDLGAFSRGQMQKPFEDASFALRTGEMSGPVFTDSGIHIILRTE

In the case of `COC(=O)[C@@]1(C)C(=O)C=C[C@]2(C)[C@H]3C(=O)C=C4[C@@H]5[C@@H](C)[C@H](C)CC[C@]5(C)CC[C@@]4(C)[C@]3(C)CC[C@@H]12`, the GI50 with LNCaP and with PC-3 was more than 12.5 µM in each case.
As to `C[C@H]1[C@H](C)CC[C@]2(C)CC[C@]3(C)C(=CC(=O)[C@@H]4[C@@]5(C)C=C(I)C(=O)[C@](C)(C(=O)OCc6ccccc6)[C@@H]5CC[C@]43C)[C@H]12`, the GI50 in the assay on LNCaP and in the assay on PC-3 was more than 12.5 µM throughout.
As for `C[C@H]1[C@H](C)CC[C@]2(C)CC[C@]3(C)C(=CC(=O)[C@@H]4[C@@]5(C)C=C(C(F)(F)F)C(=O)[C@](C)(C(=O)N6CCC(N7CCCCC7)CC6)[C@@H]5CC[C@]43C)[C@H]12`, the GI50 in the assay on LNCaP was determined as 1.79 µM; with PC-3, 1.43 µM.
The like results for `C[C@H]1[C@H](C)CC[C@]2(C)CC[C@]3(C)C(=CC(=O)[C@@H]4[C@@]5(C)C=C(I)C(=O)[C@](C)(C(=O)N6CCCCC6)[C@@H]5CC[C@]43C)[C@H]12` were, in that order, more than 12.5 µM and more than 12.5 µM.
The matching figures for `C[C@H]1[C@H](C)CC[C@]2(C)CC[C@]3(C)C(=CC(=O)[C@@H]4[C@@]5(C)C=C(I)C(=O)[C@](C)(C(=O)O)[C@@H]5CC[C@]43C)[C@H]12`: 3.78 µM and 4.65 µM.
The matching figures for `C[C@H]1[C@H](C)CC[C@]2(C)CC[C@]3(C)C(=CC(=O)[C@@H]4[C@@]5(C)C=C(C(F)(F)F)C(=O)[C@](C)(C(=O)OCc6ccccc6)[C@@H]5CC[C@]43C)[C@H]12`: 3.92 µM and 5.11 µM.
On to `C[C@H]1[C@H](C)CC[C@]2(C)CC[C@]3(C)C(=CC(=O)[C@@H]4[C@@]5(C)C=C(C(F)(F)F)C(=O)[C@](C)(C(=O)N6CCCCC6)[C@@H]5CC[C@]43C)[C@H]12`, for which the GI50 in the assay on LNCaP came to 3.21 µM; with PC-3, 3.27 µM.
The matching figures for `CC1CCN(C(=O)[C@@]2(C)C(=O)C(C#N)=C[C@]3(C)[C@H]4C(=O)C=C5[C@@H]6[C@@H](C)[C@H](C)CC[C@]6(C)CC[C@@]5(C)[C@]4(C)CC[C@@H]23)CC1`: 3.82 µM and 2.07 µM.
On to `C[C@H]1[C@H](C)CC[C@]2(C)CC[C@]3(C)C(=CC(=O)[C@@H]4[C@@]5(C)C=C(I)C(=O)[C@](C)(C(=O)N6CCC(N7CCCCC7)CC6)[C@@H]5CC[C@]43C)[C@H]12`, for which the GI50 turned out to be 3.59 µM in the assay with LNCaP and 4.22 µM in the assay with PC-3.
As for `COC(=O)[C@@]1(C)C(=O)C(C#N)=C[C@]2(C)[C@H]3C(=O)C=C4[C@@H]5[C@@H](C)[C@H](C)CC[C@]5(C)CC[C@@]4(C)[C@]3(C)CC[C@@H]12`, the results for the GI50 in the assay with LNCaP and with PC-3 were 2.34 µM and 1.2 µM, respectively.
The matching figures for `C[C@H]1[C@H](C)CC[C@]2(C)CC[C@]3(C)C(=CC(=O)[C@@H]4[C@@]5(C)C=C(C#N)C(=O)[C@](C)(C(=O)O)[C@@H]5CC[C@]43C)[C@H]12`: 0.7 µM and 0.18 µM.
The like results for `C[C@H]1[C@H](C)CC[C@]2(C)CC[C@]3(C)C(=CC(=O)[C@@H]4[C@@]5(C)C=C(C#N)C(=O)[C@](C)(C(=O)N6CCC(N7CCCCC7)CC6)[C@@H]5CC[C@]43C)[C@H]12` were, in that order, 0.67 µM and 0.13 µM.
The matching figures for `C[C@H]1[C@H](C)CC[C@]2(C)CC[C@]3(C)C(=CC(=O)[C@@H]4[C@@]5(C)C=CC(=O)[C@](C)(C(=O)OCc6ccccc6)[C@@H]5CC[C@]43C)[C@H]12`: more than 12.5 µM and more than 12.5 µM.
In the case of `C[C@H]1[C@H](C)CC[C@]2(C)CC[C@]3(C)C(=CC(=O)[C@@H]4[C@@]5(C)C=C(I)C(=O)[C@](C)(C(=O)N6CCNCC6)[C@@H]5CC[C@]43C)[C@H]12`, the figures for the GI50 with LNCaP and in the assay on PC-3 were 2.98 µM and 3.36 µM, respectively. Further, the IC50 in assay [1] was determined as 4.29 µM.
Take `C[C@H]1[C@H](C)CC[C@]2(C)CC[C@]3(C)C(=CC(=O)[C@@H]4[C@@]5(C)C=C(C#N)C(=O)[C@](C)(C(=O)N6CCCCC6)[C@@H]5CC[C@]43C)[C@H]12`: the GI50 is 1.14 µM with LNCaP and 2.89 µM with PC-3.
In the case of `COC(=O)[C@@]1(C)C(=O)C(I)=C[C@]2(C)[C@H]3C(=O)C=C4[C@@H]5[C@@H](C)[C@H](C)CC[C@]5(C)CC[C@@]4(C)[C@]3(C)CC[C@@H]12`, the GI50 in the assay on LNCaP and in the assay on PC-3 was more than 12.5 µM throughout.
`CC(=O)O[C@@H]1CC[C@@]2(C)[C@@H](CC[C@]3(C)[C@@H]2C(=O)C=C2[C@@H]4[C@@H](C)[C@H](C)CC[C@]4(C)CC[C@]23C)[C@@]1(C)C(=O)O` [AKBA]: the GI50 in the assay on LNCaP turned out to be 27.4 µM; in the assay on PC-3, 31.9 µM. Also, the IC50 in assay [1] amounted to 53 µM.
In the case of `C[C@H]1[C@H](C)CC[C@]2(C)CC[C@]3(C)C(=CC(=O)[C@@H]4[C@@]5(C)C=C(C#N)C(=O)[C@](C)(C(=O)N6CCCC6)[C@@H]5CC[C@]43C)[C@H]12`, the GI50 with LNCaP came out at 5.37 µM; with PC-3, 3.76 µM.
The matching figures for `COC(=O)[C@@]1(C)C(=O)C(C(F)(F)F)=C[C@]2(C)[C@H]3C(=O)C=C4[C@@H]5[C@@H](C)[C@H](C)CC[C@]5(C)CC[C@@]4(C)[C@]3(C)CC[C@@H]12`: 7.82 µM and 3.78 µM.
The matching figures for `CC1CCN(C(=O)[C@@]2(C)C(=O)C(I)=C[C@]3(C)[C@H]4C(=O)C=C5[C@@H]6[C@@H](C)[C@H](C)CC[C@]6(C)CC[C@@]5(C)[C@]4(C)CC[C@@H]23)CC1`: more than 12.5 µM and more than 12.5 µM.
For `CC1CCN(C(=O)[C@@]2(C)C(=O)C(C(F)(F)F)=C[C@]3(C)[C@H]4C(=O)C=C5[C@@H]6[C@@H](C)[C@H](C)CC[C@]6(C)CC[C@@]5(C)[C@]4(C)CC[C@@H]23)CC1`, the GI50 with LNCaP stood at 4.71 µM; in the assay with PC-3 it was 2.48 µM.
The like results for `C[C@H]1[C@H](C)CC[C@]2(C)CC[C@]3(C)C(=CC(=O)[C@@H]4[C@@]5(C)C=C(C(F)(F)F)C(=O)[C@](C)(C(=O)N6CCCC6)[C@@H]5CC[C@]43C)[C@H]12` were, in that order, 3.29 µM and 2.64 µM.
Take `C[C@H]1[C@H](C)CC[C@]2(C)CC[C@]3(C)C(=CC(=O)[C@@H]4[C@@]5(C)C=C(C#N)C(=O)[C@](C)(C(=O)OCc6ccccc6)[C@@H]5CC[C@]43C)[C@H]12`: the GI50 amounted to 1.66 µM in the assay on LNCaP and 0.45 µM in the assay with PC-3.
The like results for `C[C@H]1[C@H](C)CC[C@]2(C)CC[C@]3(C)C(=CC(=O)[C@@H]4[C@@]5(C)C=C(C(F)(F)F)C(=O)[C@](C)(C(=O)O)[C@@H]5CC[C@]43C)[C@H]12` were, in that order, 4.26 µM and 4.38 µM.
As for `C[C@H]1[C@H](C)CC[C@]2(C)CC[C@]3(C)C(=CC(=O)[C@@H]4[C@@]5(C)C=C(C(F)(F)F)C(=O)[C@](C)(C(=O)N6CCNCC6)[C@@H]5CC[C@]43C)[C@H]12`, the values for the GI50 with LNCaP and in the assay with PC-3 were 2.18 µM and 1.07 µM, respectively. 9.6 µM corresponded to half-maximal inhibition in assay [1] (IC50).
As for `C[C@H]1[C@H](C)CC[C@]2(C)CC[C@]3(C)C(=CC(=O)[C@@H]4[C@@]5(C)C=C(I)C(=O)[C@](C)(C(=O)N6CCCC6)[C@@H]5CC[C@]43C)[C@H]12`, the GI50 with LNCaP and with PC-3 was more than 12.5 µM in each case.
